This is an account of results in paper PMC7862507, “Adrenomedullin for steroid-resistant ulcerative colitis: a randomized, double-blind, placebo-controlled phase-2a clinical trial” (Journal of Gastroenterology, 2020).

This assay has as its system patients with steroid-resistant UC. The experiment in a line: Mayo score, phase-2a clinical trial. The class given is in vivo, Japanese patients. The following applies: mean ± SD. From the text: Patients had to meet all criteria, namely, a Mayo score of 6 or more, a rectal bleeding subscore of at least 1, and Mayo endoscopy subscore (MES) of at least 2, at entry. Main exclusion criteria were as follows: patients with fulminant UC, patients with precancerous lesion in the colon, medication history of biologics within the last 3 months, patients with malignancy or any history of malignancy, and patients with active infection. We excluded patients with a systolic blood pressure under 90 mmHg and a pulse rate under 45 bpm for safety reasons due to the vasodilatory effect of AM. All patients provided written informed consent for all study-related procedures and were requested to be hospitalized for 2 weeks.
Patients were enrolled after confirmation of steroid-resistance defined as at least daily treatment with 30 mg or more of prednisolone. Screening tests including measurements of vital signs, blood and urine examinations, as well as a 12-lead electrocardiography (ECG), were conducted within 2 weeks prior to administration. Demographic data and disease characteristics including endoscopic disease activity of patients were also collected before randomization. Endoscopic subscores were assessed by on-site investigators and were not subjected to central review. Clinical disease activity was assessed by expert doctors according to the Mayo score and Lichtiger index. Stool samples were collected before administration of the investigational drug and after 2 weeks of treatment initiation. Measurements of fecal calprotectin and […] (FITs) were performed by a commercially available laboratory testing service (BML, Tokyo, Japan) in compliance with GCP. Additionally, measurements of complement components including CH50, C1q, C3, and C4 and evaluation of the absolute number of hematopoietic stem cells in the peripheral blood were performed before and after 2, 4, and 8 weeks by other laboratory testing services (SRL medisearch, Tokyo, Japan and LSI medience, Tokyo, Japan, respectively). The absolute number of hematopoietic stem cells in the peripheral blood was measured as CD34-positive cells using CD45FITC/CD34PE, 7AAD kit (Becton Dickinson Immunocytometry System, USA) and flow cytometry.
After hospitalization, patients received a continuous infusion of the assigned drug for 8 h per day for a total of 14 days. After the final administration of the investigational drug, patients were subjected to safety examinations and then discharged. But, if necessary due to disease activity, continuous hospitalization was allowed. Patients were requested to make an office visit at 4 and 8 weeks. Evaluations of their Mayo scores including endoscopic examinations were done at 2 and 8 weeks, whereas evaluation of the Lichtiger index was done at 2, 4, and 8 weeks. The dose of concomitant steroid was maintained for 2 weeks after drug administration, and then, a reduction in the steroid dose was allowed depending on the disease condition. Changes to the doses of other drugs, such as aminosalicylic acid, were prohibited throughout the trial.
All data were collected at each institute from March 2017 to April 2019. The primary endpoint was the change in the Mayo scores at 2 weeks. Secondary endpoints included the change in the Mayo scores at 8 weeks and the rate of clinical remission at 2 and 8 weeks, defined as a Mayo score 0; the response rate of the Mayo scores at 2 and 8 weeks, defined as an improvement of a 3-point or more decrease or at least a 30% decrease from baseline; the changes in MES at 2 and 8 weeks; the changes in the Lichtiger index at 2, 4, and 8 weeks; the changes in fecal calprotectin and FIT at 2 weeks; and finally, the changes in the given dose of steroid.
The significant level for each test was 5%. […] All data are shown as mean ± standard deviation (SD).

As to `CC[C@H](C)[C@H](NC(=O)[C@H](CCC(N)=O)NC(=O)[C@H](Cc1c[nH]cn1)NC(=O)[C@H](C)NC(=O)[C@H](CC(C)C)NC(=O)[C@H](CCCCN)NC(=O)[C@H](CCC(N)=O)NC(=O)[C@@H](NC(=O)[C@@H](NC(=O)[C@@H]1CSSC[C@H](NC(=O)CNC(=O)[C@H](Cc2ccccc2)NC(=O)[C@H](CO)NC(=O)[C@H](CCCNC(=N)N)NC(=O)[C@H](CC(C)C)NC(=O)CNC(=O)[C@H](CCC(N)=O)NC(=O)[C@H](Cc2ccccc2)NC(=O)[C@H](CC(N)=O)NC(=O)[C@H](CC(N)=O)NC(=O)[C@H](CCSC)NC(=O)[C@H](CO)NC(=O)[C@H](CCC(N)=O)NC(=O)[C@H](CCCNC(=N)N)NC(=O)[C@@H](N)Cc2ccc(O)cc2)C(=O)N[C@@H](CCCNC(=N)N)C(=O)N[C@@H](Cc2ccccc2)C(=O)NCC(=O)N[C@@H]([C@@H](C)O)C(=O)N1)[C@@H](C)O)C(C)C)C(=O)N[C@@H](Cc1ccc(O)cc1)C(=O)N[C@@H](CCC(N)=O)C(=O)N[C@@H](Cc1ccccc1)C(=O)N[C@H](C(=O)N[C@@H](CC(=O)O)C(=O)N[C@@H](CCCCN)C(=O)N[C@@H](CC(=O)O)C(=O)N[C@@H](CCCCN)C(=O)N[C@@H](CC(=O)O)C(=O)N[C@@H](CC(N)=O)C(=O)N[C@H](C(=O)N[C@@H](C)C(=O)N1CCC[C@H]1C(=O)N[C@@H](CCCNC(=N)N)C(=O)N[C@@H](CO)C(=O)N[C@@H](CCCCN)C(=O)N[C@H](C(=O)N[C@@H](CO)C(=O)N1CCC[C@H]1C(=O)N[C@@H](CCC(N)=O)C(=O)NCC(=O)N[C@@H](Cc1ccc(O)cc1)C(N)=O)[C@@H](C)CC)C(C)C)[C@@H](C)O` [Adrenomedullin], the Mayo score reads like this: (AM 5 ng/kg/min infusion 8 h/day x 14 days, at 2 weeks, n = 4, baseline 9.5 ± 1.0, placebo 6.8 ± 3.6) 5.0 ± 3.2; (AM 5 ng/kg/min infusion 8 h/day x 14 days, at 8 weeks, n = 3, placebo 4.5 ± 3.5 (n = 2)) 2.0 ± 1.7; (AM 10 ng/kg/min infusion 8 h/day x 14 days, at 2 weeks, n = 5, baseline 8.8 ± 1.1, placebo 6.8 ± 3.6) 7.2 ± 2.7; (AM 10 ng/kg/min infusion 8 h/day x 14 days, at 8 weeks, n = 3, placebo 4.5 ± 3.5 (n = 2)) 5.7 ± 2.5; (AM 15 ng/kg/min infusion 8 h/day x 14 days, at 2 weeks, n = 6, baseline 9.8 ± 1.6, placebo 6.8 ± 3.6) 7.0 ± 4.1; (AM 15 ng/kg/min infusion 8 h/day x 14 days, at 8 weeks, n = 3, placebo 4.5 ± 3.5 (n = 2)) 0.0 ± 0.0.
